Laboratory results taken from patent US12006328B2, “Thieno[2,3-d]pyrimidin-4-one derivatives as NMDAR modulators and uses related thereto” (Emory University, priority 2014, dated 2024).

How the values were obtained:
[1] = target: GluN2B-containing NMDA receptors (Homo sapiens, UniProt Q13224); test: Two-electrode voltage-clamp recordings from Xenopus laevis oocytes, GluN2B; type: cell-based; conditions: Table 6, printed in the IC50 column; 100 μM compound
In short: (§1)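 Xenopus oocytes expressing NMDA receptor subunits recorded by two-electrode voltage clamp 2–7 days after cRNA injection, in solution with 90 NaCl, 3 KCl, 10 HEPES, 0.5 BaCl2, 0.01 EDTA (mM), pH 7.4. Increasing compound concentrations applied with glutamate (100 μM) and glycine (30 μM); response expressed as percent of compound-free response.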

[2] = target: GluN2D-containing NMDA receptors (Homo sapiens, UniProt O15399+Q05586); test: Two-electrode voltage-clamp recordings from Xenopus laevis oocytes, GluN2D; type: cell-based; conditions: Table 6; read-out: IC50 (μM) Glu N2D
GluN2D-containing NMDA receptors, sequence (O15399 28-1336, other chains not shown): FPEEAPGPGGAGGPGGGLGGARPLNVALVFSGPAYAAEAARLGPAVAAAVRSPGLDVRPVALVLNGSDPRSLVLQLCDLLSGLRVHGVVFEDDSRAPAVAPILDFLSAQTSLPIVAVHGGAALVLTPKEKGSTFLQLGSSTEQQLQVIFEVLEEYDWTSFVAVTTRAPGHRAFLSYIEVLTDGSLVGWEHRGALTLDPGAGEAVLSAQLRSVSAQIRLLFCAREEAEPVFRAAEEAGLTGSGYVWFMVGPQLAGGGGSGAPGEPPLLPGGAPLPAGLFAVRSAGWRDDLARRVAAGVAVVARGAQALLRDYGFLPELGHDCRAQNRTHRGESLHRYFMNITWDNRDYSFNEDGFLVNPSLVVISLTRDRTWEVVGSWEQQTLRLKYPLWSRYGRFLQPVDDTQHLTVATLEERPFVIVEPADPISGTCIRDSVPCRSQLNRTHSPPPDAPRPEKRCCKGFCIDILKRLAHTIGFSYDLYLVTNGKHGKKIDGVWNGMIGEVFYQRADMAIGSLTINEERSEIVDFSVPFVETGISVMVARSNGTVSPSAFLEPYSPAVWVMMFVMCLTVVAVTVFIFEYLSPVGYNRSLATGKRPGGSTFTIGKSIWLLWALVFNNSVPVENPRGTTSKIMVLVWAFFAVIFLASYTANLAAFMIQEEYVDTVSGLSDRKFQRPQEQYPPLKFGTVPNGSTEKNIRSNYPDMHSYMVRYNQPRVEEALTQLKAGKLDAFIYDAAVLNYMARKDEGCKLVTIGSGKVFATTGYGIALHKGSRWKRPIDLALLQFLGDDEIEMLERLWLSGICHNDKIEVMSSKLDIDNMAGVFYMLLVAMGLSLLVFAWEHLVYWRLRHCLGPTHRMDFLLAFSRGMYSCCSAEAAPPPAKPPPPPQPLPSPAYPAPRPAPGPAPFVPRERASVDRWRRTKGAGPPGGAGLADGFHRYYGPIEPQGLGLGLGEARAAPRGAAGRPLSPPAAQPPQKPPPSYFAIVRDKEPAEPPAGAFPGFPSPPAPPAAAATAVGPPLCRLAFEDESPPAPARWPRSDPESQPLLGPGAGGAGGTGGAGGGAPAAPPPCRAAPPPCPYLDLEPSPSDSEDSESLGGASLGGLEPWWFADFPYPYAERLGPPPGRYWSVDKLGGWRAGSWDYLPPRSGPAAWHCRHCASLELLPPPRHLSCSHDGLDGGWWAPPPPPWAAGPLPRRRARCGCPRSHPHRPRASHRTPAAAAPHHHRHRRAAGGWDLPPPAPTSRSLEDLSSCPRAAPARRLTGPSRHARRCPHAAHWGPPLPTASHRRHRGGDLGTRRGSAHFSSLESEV
In short: as §1

[3] = target: GluN2C-containing NMDA receptors (Homo sapiens, UniProt Q05586+Q14957); test: Two-electrode voltage-clamp recordings from Xenopus laevis oocytes, GluN2C; type: cell-based; conditions: Table 6; read-out: IC50 (μM) Glu N2C
GluN2C-containing NMDA receptors, sequence (Q14957 20-1233, other chains not shown): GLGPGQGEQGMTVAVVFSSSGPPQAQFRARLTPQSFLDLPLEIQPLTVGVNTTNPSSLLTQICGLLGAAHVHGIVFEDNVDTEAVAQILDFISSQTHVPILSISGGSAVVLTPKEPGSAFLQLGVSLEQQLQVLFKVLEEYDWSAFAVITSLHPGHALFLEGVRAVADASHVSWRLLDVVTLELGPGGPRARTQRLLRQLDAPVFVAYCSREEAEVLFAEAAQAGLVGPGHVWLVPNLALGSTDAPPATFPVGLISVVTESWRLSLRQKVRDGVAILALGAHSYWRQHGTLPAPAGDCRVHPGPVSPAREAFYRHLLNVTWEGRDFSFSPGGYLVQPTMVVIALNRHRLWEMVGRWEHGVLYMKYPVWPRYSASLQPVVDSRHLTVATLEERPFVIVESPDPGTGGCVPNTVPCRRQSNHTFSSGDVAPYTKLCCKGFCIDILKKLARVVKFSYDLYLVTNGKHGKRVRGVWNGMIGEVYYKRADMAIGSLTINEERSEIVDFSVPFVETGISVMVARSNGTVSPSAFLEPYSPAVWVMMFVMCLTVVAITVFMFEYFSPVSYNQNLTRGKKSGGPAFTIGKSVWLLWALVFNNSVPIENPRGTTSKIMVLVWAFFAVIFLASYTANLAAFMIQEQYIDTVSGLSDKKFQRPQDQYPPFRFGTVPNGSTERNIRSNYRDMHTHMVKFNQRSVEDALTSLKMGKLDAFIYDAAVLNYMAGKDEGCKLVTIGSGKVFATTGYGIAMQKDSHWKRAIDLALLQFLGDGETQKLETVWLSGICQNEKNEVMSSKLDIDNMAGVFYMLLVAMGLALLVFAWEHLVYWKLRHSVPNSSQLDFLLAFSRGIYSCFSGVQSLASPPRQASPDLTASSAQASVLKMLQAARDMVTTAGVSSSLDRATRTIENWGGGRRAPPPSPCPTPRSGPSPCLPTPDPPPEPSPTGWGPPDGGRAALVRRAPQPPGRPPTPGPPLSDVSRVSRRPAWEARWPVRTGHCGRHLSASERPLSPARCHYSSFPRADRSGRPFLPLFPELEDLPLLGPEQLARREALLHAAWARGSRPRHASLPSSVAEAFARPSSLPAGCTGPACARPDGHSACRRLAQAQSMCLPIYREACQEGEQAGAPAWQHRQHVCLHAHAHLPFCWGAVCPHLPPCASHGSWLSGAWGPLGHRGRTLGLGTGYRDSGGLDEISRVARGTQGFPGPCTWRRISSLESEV
In short: as §1

[4] = target: T1, GluN1/GluN2B expressing HEK293 cells (Homo sapiens, UniProt Q13224); test: Rapid solution exchange patch clamp in transfected HEK293 cells; type: cell-based
T1 construct: expressed in transfected cells; host or cells: HEK293
T1 sequence (Q13224 27-1484, other chains not shown): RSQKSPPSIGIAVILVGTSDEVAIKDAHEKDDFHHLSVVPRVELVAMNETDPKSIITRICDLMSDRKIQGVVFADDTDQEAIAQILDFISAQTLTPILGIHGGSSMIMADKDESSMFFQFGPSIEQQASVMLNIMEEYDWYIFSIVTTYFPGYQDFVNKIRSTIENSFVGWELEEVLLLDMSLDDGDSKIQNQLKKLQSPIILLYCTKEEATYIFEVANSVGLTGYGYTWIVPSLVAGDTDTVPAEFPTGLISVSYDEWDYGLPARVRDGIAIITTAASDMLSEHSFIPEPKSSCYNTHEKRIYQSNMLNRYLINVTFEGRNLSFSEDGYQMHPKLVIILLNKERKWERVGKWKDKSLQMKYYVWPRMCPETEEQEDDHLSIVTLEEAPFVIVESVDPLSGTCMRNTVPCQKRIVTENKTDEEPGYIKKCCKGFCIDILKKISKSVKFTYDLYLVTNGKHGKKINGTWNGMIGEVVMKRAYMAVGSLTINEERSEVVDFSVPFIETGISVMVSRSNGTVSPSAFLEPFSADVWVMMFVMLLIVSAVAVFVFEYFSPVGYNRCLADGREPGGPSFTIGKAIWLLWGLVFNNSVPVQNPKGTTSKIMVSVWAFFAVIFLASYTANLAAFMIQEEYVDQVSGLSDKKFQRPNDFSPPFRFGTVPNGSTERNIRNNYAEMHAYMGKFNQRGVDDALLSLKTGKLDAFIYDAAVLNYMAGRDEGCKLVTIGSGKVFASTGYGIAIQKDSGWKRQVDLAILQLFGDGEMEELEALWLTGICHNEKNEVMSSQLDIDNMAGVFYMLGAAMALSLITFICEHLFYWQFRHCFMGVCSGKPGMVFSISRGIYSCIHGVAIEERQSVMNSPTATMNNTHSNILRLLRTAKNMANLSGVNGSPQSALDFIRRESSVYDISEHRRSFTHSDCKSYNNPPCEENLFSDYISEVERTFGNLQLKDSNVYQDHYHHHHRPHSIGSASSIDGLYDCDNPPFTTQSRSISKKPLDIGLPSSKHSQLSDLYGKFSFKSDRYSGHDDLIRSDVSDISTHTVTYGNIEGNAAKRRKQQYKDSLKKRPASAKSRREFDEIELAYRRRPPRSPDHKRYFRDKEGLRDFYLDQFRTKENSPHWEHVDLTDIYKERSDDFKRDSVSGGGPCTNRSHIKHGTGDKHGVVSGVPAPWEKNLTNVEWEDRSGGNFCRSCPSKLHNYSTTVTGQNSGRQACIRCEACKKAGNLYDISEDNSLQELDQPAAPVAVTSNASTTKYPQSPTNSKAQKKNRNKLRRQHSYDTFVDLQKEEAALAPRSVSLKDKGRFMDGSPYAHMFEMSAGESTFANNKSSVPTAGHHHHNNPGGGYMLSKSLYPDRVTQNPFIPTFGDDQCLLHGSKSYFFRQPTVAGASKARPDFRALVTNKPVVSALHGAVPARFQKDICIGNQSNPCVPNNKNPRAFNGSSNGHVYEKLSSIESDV
Protocol: HEK293 cells were transfected used the CaPO4 method. Cells were patched 1-3 days later and lifted into the flow from a theta tube perfusion. […] NMDA receptor currents were activated using 100 μM glutamate and 30 μM glycine.

[5] = tested on: hippocampal CA1 neurons; test: Hippocampal slice whole cell recordings; type: cell-based, mice
Description: Coronal hippocampal brain slices were made from mice (p7-14) using a vibrotome. During slice cutting and recovery, the slices were bathed in an artificial cerebral spinal fluid (slicing aCSF—containing, in mM: 75 NaCl, 2.5 KCl, 1.25 NaH2PO4, 25 NaHCO3, 5 MgCl2 or MgSO4, 0.5 CaCl2, 20 Glucose, 70 Sucrose). Whole cell recordings were made using a different aCSF (recording aCSF—containing, in mM: 130 NaCl, 2.5 KCl, 1.25 NaH2PO4, 25 NaHCO3, 0.1 MgCl2 or MgSO4, 2.5 CaCl2, 20 Glucose), and using a CsGlu internal solution containing, following (in mM): 110 d-gluconic acid, 110 CsOH, 30 CsCl, 5 HEPES, 4 NaCl, 0.5 CaCl2, 2 MgCl2, 5 BAPTA, 2 Na2ATP, and 0.3 NaGTP (pH 7.35).

[6] = 1622-35 10 μM versus control, N 4

COCCN1Cc2c(sc(C)c2C)N(C(=O)c2ccc(OC)cc2)C1
% response at 100 μM, Glu N2B [1]: 86% response at 100 μM
IC50 [2]: 109 µM
IC50 [3]: 46 µM

COc1ccc(C(=O)N2CN(CC3CCCO3)Cc3c2sc(C)c3C)cc1 (stereo not shown)
% response at 100 μM, Glu N2B [1]: 92% response at 100 μM
IC50 [2]: 35 µM
IC50 [3]: 6 µM

Cc1sc2ncn(CC(=O)N3CCCC3)c(=O)c2c1-c1cccc(I)c1 [Compound 1622-35]
effect on channel function and deactivation, excised outside-out patch ([4]; 30 μM 1622-35): increases in GluN1/GluN2 channel function and slows deactivation
Decay Time Constant, Fold Increase [4, 6]: 5.7 ± 1.9 fold
Peak Amplitude, Fold Increase [4, 6]: 3.4 ± 0.6 fold
Peak Amplitude (pA) ([4]; 1622-35 10 μM, 100 μM glutamate, 30 μM glycine, control 628 ± 237, N 4): 1694 ± 417 pA
Decay Time Constant ([4]; 1622-35 10 μM, 100 μM glutamate, 30 μM glycine, control 681 ± 142, N 4): 3037 ± 166 ms
prolonged deactivation of NMDA-Rs ([4]; rapid solution exchange electrophysiology): roughly 3 fold
effect on CA1 EPSPs during theta burst stimulation [5]: enhances the NMDA components of CA1 EPSPs
effect on sEPSCs in hippocampal pyramidal neurons [5]: potentiates only the NMDA component of the sEPSCs
total charge transfer of EPSCs ([5]; 10 μM 1622-35): 2.3 times greater than control
time course of excitatory post synaptic currents ([5]; 10 μM 1622-35, n=4, control 280±30 ms): 970 ± 220 ms
